Laboratory results: patent US20260000496A1, “MATERIALS AND METHODS FOR DRUG-INDUCED GINGIVAL OVERGROWTH” (Optimed Technology, Inc., priority 2019, published 2026)

Tests used:
NFκB = assay: Mice study #2: NFκB immunostaining of gingival tissue; type: in vivo, C57BL/6 mice
Method: Mice study #2: Validation study for preventive and active treatment for DIGO. […] One set of these mice were used as a control disease group (FIG. 23A) while the other group was treated with folic acid (gel and in drinking water) (FIG. 23B). In the prevention and treatment group, folic acid (10 μg/ml) (Sigma-Aldrich, St. Louis MO) was included in the drinking water from the time of suture placement until end of the study (14 days). Additionally, gel applications were repeated daily until the end of the study (14 days). The four groups in this study were: • 1. Control group (n=2): no interventions were performed • 2.
Histopathology and Immunohistochemistry. Mice mandibles were fixed in 10% formaldehyde for overnight at 4° C. on the shaker with 45 rpm and then the solutions were replaced with 70% ethanol. The tissues were decalcified with 10% ethylenediaminetetraacetic acid (EDTA) for 1 week and were dehydrated through graded ethanol, cleared with xylene, and embedded in paraffin. 4 μm serial sections were cut in a buccal-lingual direction and stained with Hematoxylin and Eosin (HE) and observed under light microscopy for histomorphological evaluations.
For immunohistochemistry, unstained sections were deparaffinized in xylene for 10 minutes and then transferred to ethanol for 20 minutes. […]

Myd88 = assay: Mice study #1: Myd88 immunohistochemistry of gingival tissue; type: in vivo; settings: BALB/c
Method: Mice study #1: Pilot study to establish DIGO disease model. Sterile sutures (5-0 Silk thread, Ethicon, Johnson & Johnson, Somerville, NJ) were placed around the lower central incisors on both sides in BALB/c (Male) mice anaesthetized conditions using Ketamine (90-100 mg/kg bodyweight) and Xylazine (5-10 mg/kg body weight) using a 0.1 cc syringe with a 25-gauge needle intraperitoneally (FIG. 37). Mice were checked daily for intact suture placement and replaced when necessary. […] The controls were injected with the vehicle used to dissolve the drug, which was 10% ethanol and 10% polyethylene glycol castor oil (both Sigma-Aldrich, St. Louis MO) in distilled water. For preventive treatments, Folic acid was supplemented in the drinking water (10 μg/ml) ad libitum and methylcellulose gel with the Folic acid (100 μg/ml) microspheres was applied daily on the anterior gingiva. The three groups in this study were: • 1. Control group (n=1): no interventions were performed • 2. […] Treatments were continued for 28 days and digital images were captured over the time course.
Histopathology and Immunohistochemistry. […]
Immunohistochemical analysis. […] Then, we examined the histopathological images of the mice model type BALB/c and we assessed the expressions of the Myd88 in the disease group in comparison to the negative control and Folic acid treated group. […]

Nc1nc2ncc(CNc3ccc(C(=O)N[C@@H](CCC(=O)O)C(=O)O)cc3)nc2c(=O)[nH]1 [folic acid]
NFκB epithelial expression, control, disease and folic acid-treated groups (NFκB): higher in the control group followed by the disease group | Myd88 expression in the epithelium, disease group relative to folic acid prevention group (Myd88): significantly higher compared to the prevention and control groups
